Results taken from ChEMBL document CHEMBL3217656, “Identification of a potent salicylic acid-based inhibitor of tyrosine phosphatase PTP1B” (Medchemcomm, 2013).
Activity calls are given as the source filed them. The calls are words filed in the database; no cut-off is given here.

How the values were obtained:
[1] = target: T1, Tyrosine-protein phosphatase non-receptor type 1 (Homo sapiens, UniProt P18031); assay: Inhibition of human GST-tagged PTP1B catalytic domain assessed as DiFMUP hydrolysis by fluorometric kinetic-based assay
T1 sequence (P18031 whole entry): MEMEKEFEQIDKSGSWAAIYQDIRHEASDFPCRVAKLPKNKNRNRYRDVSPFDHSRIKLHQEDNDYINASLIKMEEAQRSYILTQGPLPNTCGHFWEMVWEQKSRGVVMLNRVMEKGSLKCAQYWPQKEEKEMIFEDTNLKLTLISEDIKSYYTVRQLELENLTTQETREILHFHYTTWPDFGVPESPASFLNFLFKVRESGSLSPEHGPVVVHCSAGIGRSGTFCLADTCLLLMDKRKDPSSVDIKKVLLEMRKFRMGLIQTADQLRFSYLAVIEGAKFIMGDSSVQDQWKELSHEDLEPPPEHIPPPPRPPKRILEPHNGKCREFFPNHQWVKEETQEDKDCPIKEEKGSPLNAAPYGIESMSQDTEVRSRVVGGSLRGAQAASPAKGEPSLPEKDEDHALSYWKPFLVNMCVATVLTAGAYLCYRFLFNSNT

[2] = target: T2, Dual specificity protein phosphatase 22 (Homo sapiens, UniProt Q9NRW4); assay: Inhibition of human GST-tagged full length MKPX assessed as DiFMUP hydrolysis by fluorometric kinetic-based assay
T2 sequence (Q9NRW4 whole entry): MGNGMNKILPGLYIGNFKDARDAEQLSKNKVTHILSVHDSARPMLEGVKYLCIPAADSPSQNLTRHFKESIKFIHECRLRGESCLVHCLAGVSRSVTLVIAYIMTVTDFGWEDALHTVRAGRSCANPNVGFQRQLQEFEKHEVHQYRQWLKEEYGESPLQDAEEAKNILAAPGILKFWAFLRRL

[3] = target: Receptor-type tyrosine-protein phosphatase F (Homo sapiens) (UniProt P10586); assay: Inhibition of human GST-tagged PTP-LAR D1D2 domain assessed as DiFMUP hydrolysis at 10 uM by fluorometric kinetic-based assay
[4] = target: T3, Receptor-type tyrosine-protein phosphatase S (Homo sapiens, UniProt Q13332); assay: Inhibition of human GST-tagged PTP-sigma D1D2 domain assessed as DiFMUP hydrolysis at 10 uM by fluorometric kinetic-based assay
[5] = target: T3, Receptor-type tyrosine-protein phosphatase S; assay: Inhibition of human GST-tagged PTP-sigma D1D2 domain assessed as DiFMUP hydrolysis by fluorometric kinetic-based assay
Homo sapiens = organism: Homo sapiens; assay: Inhibition of human GST-tagged PRL2 A/S active mutant assessed as DiFMUP hydrolysis at 10 uM by fluorometric kinetic-based assay
[6] = Inhibition of human GST-tagged PRL2 A/S active mutant assessed as DiFMUP hydrolysis by fluorometric kinetic-based assay
[7] = target: T4, Dual specificity protein phosphatase 22 (Homo sapiens) (UniProt Q9NRW4); assay: Inhibition of human GST-tagged full length MKPX assessed as DiFMUP hydrolysis at 10 uM by fluorometric kinetic-based assay
T4 sequence (whole entry): T2 sequence (Q9NRW4 whole entry)

[8] = target: T5, Tyrosine-protein phosphatase non-receptor type 2 (Homo sapiens, UniProt P17706); assay: Inhibition of human GST-tagged TC-PTP catalytic domain assessed as DiFMUP hydrolysis by fluorometric kinetic-based assay
T5 sequence (P17706 whole entry): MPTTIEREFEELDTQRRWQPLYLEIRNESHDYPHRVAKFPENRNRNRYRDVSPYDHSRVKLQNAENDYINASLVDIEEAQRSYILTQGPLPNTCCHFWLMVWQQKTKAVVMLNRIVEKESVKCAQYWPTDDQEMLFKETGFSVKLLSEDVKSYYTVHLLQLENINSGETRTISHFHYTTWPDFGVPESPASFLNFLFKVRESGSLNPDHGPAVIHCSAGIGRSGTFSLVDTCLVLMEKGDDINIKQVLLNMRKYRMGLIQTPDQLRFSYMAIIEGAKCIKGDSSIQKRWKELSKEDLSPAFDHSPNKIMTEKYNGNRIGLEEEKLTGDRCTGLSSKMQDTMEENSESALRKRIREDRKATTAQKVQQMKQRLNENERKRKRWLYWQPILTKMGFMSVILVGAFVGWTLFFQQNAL

[9] = target: T6, Tyrosine-protein phosphatase non-receptor type 2 (Homo sapiens) (UniProt P17706); assay: Inhibition of human GST-tagged TC-PTP catalytic domain assessed as DiFMUP hydrolysis at 10 uM by fluorometric kinetic-based assay
T6 sequence (whole entry): T5 sequence (P17706 whole entry)

Papain (Carica papaya) = target: T7, Papain (Carica papaya) (UniProt P00784); assay: Inhibition of papaya papain assessed as Z-Phe-Arg-pNA hydrolysis at 10 uM by fluorometric kinetic-based assay
T7 sequence (whole entry): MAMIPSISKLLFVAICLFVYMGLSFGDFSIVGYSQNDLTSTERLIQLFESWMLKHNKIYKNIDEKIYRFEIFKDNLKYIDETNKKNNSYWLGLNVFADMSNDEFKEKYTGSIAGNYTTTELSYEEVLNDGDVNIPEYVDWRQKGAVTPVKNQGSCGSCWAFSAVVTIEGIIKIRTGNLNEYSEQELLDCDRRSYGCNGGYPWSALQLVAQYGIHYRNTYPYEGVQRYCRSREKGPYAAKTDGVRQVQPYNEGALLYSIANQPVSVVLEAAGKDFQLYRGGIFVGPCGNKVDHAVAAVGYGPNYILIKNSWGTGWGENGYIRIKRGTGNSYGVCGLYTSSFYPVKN

[10] = target: T8, Tyrosine-protein phosphatase non-receptor type 1 (Homo sapiens) (UniProt P18031); assay: Inhibition of human GST-tagged PTP1B catalytic domain assessed as DiFMUP hydrolysis at 10 uM by fluorometric kinetic-based assay
T8 sequence (whole entry): T1 sequence (P18031 whole entry)

Papain = target: T9, Papain (Carica papaya, UniProt P00784); assay: Inhibition of papaya papain assessed as Z-Phe-Arg-pNA hydrolysis by fluorometric kinetic-based assay
T9 sequence (P00784 whole entry): T7 sequence (whole entry)

CHO [11] = assay: Cytotoxicity against Chinese hamster CHO cells overexpressing IR assessed as slight reduction in cell viability at >50 uM by xCELLigence system; format: cell-based, Cricetulus griseus
CHO [12] = assay: Inhibition of PTP1B in Chinese hamster CHO cells overexpressing IR assessed as insulin-stimulated IR phosphorylation treated for 3 hrs prior to insulin stimulation for 15 mins by western blot analysis; format: cell-based; settings: Cricetulus griseus
[13] = target: T8, Tyrosine-protein phosphatase non-receptor type 1 (Homo sapiens); assay: Mixed inhibition of human GST-tagged PTP1B catalytic domain assessed as rate of DiFMUP hydrolysis by lineweaver-burk plot analysis
CHO [14] = assay: Cytotoxicity against Chinese hamster CHO cells overexpressing IR assessed as cell proliferation rate at 0.4 to 10 uM by xCELLigence system; format: cell-based, Cricetulus griseus
[15] = target: Receptor-type tyrosine-protein phosphatase F (Homo sapiens) (UniProt P10586); assay: Inhibition of human GST-tagged PTP-LAR D1D2 domain assessed as DiFMUP hydrolysis by fluorometric kinetic-based assay
[16] = target: T1, Tyrosine-protein phosphatase non-receptor type 1; assay: Competitive inhibition of human GST-tagged PTP1B catalytic domain assessed as rate of DiFMUP hydrolysis by lineweaver-burk plot analysis
CHO [17] = assay: Cytotoxicity against Chinese hamster CHO cells overexpressing IR assessed as cell proliferation rate at 50 uM by xCELLigence system; format: cell-based, Cricetulus griseus
[18] = target: T5, Tyrosine-protein phosphatase non-receptor type 2; assay: Inhibition of TC-PTP (unknown origin) expressed in Escherichia coli cells assessed as p-nitrophenyl phosphate hydrolysis by spectrophotometric analysis
[19] = target: T1, Tyrosine-protein phosphatase non-receptor type 1; assay: Inhibition of PTP1B (unknown origin) expressed in Escherichia coli cells assessed as p-nitrophenyl phosphate hydrolysis by spectrophotometric analysis

Receptor-type tyrosine-protein phosphatase F (Homo sapiens), sequence (P10586 whole entry, the tested form may be a part): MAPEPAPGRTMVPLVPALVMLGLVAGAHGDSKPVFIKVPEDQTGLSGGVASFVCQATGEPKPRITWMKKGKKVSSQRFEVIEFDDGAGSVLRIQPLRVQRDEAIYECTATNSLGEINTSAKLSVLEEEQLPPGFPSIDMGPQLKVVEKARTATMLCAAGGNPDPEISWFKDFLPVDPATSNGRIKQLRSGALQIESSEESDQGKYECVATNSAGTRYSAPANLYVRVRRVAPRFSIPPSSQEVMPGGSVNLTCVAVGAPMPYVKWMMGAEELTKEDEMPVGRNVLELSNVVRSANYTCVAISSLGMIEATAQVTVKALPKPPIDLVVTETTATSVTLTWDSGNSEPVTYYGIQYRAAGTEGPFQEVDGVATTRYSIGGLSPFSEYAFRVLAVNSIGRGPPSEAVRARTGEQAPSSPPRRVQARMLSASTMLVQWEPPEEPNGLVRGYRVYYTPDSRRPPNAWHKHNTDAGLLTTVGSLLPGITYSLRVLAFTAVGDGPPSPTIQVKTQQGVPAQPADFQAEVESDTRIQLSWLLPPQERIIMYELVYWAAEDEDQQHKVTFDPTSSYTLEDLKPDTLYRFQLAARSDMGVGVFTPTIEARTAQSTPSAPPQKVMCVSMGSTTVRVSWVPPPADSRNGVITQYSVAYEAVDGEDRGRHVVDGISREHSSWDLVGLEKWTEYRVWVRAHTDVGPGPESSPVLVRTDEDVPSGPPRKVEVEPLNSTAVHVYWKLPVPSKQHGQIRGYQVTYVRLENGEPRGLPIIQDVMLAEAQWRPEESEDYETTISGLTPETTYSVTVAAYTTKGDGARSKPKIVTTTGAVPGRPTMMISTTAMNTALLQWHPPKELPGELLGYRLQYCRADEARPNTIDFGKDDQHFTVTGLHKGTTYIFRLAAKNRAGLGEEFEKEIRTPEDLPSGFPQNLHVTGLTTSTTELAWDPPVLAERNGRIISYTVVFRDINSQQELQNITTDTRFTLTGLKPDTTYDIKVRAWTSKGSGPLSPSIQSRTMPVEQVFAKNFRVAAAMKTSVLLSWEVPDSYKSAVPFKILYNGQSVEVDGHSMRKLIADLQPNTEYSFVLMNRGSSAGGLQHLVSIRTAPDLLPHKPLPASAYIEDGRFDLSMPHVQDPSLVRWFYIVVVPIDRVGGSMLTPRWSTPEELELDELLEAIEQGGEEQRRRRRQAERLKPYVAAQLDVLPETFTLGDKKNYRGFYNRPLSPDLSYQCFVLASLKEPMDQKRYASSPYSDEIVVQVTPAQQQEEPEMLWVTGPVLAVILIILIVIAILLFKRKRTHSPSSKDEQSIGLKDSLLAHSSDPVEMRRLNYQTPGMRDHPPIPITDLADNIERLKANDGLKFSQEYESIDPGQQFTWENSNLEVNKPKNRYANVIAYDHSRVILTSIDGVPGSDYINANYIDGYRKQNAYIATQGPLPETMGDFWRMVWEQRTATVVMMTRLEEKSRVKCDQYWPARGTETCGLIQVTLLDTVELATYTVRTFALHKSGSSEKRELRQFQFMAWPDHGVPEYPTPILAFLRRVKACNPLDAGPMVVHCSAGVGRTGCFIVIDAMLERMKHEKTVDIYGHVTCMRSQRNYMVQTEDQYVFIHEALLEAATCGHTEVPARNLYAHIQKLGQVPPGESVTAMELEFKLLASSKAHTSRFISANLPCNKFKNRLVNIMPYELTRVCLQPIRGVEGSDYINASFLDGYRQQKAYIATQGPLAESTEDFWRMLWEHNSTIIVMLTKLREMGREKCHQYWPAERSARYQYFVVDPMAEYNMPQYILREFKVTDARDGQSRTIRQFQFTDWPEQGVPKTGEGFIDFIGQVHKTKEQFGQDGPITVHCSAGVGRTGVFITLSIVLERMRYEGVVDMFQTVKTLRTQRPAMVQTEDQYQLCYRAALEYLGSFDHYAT
T3 sequence (Q13332 whole entry, the tested form may be a part): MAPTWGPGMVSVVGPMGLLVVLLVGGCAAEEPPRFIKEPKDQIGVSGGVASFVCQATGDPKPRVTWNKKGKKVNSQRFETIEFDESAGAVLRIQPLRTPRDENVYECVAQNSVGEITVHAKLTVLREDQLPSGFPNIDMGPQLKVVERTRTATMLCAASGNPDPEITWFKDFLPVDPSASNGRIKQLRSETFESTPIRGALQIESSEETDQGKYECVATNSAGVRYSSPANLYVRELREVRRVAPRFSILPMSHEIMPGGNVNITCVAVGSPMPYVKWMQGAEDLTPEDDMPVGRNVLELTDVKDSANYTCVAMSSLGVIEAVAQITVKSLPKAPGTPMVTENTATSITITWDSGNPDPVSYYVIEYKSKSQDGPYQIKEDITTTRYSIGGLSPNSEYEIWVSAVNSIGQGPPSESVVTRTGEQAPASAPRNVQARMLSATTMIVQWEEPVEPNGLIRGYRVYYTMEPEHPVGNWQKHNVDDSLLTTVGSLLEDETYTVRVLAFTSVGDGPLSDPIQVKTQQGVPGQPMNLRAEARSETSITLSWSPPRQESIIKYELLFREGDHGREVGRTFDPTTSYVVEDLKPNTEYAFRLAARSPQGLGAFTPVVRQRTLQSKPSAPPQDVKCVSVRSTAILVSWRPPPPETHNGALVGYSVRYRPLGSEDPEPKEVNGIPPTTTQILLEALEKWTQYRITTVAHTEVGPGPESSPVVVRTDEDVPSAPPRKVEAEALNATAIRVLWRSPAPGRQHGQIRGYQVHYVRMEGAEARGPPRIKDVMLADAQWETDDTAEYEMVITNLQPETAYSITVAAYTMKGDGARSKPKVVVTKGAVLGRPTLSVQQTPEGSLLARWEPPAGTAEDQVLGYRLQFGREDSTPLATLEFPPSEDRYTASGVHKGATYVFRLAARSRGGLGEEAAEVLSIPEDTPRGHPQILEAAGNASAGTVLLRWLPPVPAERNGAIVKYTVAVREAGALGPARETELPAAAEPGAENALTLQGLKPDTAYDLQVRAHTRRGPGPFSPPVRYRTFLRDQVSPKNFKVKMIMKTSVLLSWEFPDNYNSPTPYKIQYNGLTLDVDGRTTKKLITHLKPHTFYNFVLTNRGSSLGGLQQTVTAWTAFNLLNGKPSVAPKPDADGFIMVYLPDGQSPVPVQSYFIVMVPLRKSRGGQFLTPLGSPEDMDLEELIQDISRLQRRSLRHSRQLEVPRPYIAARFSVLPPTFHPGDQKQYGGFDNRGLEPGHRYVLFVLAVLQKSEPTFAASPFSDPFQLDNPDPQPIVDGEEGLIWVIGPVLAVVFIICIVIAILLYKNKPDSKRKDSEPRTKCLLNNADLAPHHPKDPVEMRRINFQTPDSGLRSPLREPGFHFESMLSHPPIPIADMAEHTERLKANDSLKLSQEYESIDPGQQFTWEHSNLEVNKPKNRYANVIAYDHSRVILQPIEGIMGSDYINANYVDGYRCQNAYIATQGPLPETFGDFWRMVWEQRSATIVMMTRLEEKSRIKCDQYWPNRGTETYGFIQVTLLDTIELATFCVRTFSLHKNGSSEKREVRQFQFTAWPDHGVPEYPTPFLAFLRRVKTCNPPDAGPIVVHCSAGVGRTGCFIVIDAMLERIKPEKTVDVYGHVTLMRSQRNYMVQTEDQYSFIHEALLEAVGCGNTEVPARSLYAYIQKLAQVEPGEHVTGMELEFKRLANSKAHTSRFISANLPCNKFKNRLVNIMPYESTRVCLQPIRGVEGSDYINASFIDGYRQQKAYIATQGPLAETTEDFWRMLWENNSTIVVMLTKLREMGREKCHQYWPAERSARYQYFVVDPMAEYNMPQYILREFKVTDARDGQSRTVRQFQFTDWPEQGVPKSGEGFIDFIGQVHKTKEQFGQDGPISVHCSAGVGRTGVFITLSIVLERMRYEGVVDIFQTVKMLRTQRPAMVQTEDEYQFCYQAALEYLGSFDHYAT

SMILES	IC50 [1]	IC50 [2]	inhibition [3]	inhibition [4]	IC50 [5]	inhibition (Homo sapiens)	IC50 [6]	inhibition [7]	IC50 [8]	inhibition [9]	inhibition (Papain (Carica papaya))	inhibition [10]	IC50 (Papain)	inhibition (CHO [12])	Activity (CHO [14])	inhibition [15]	also measured
Cc1ccc(S(=O)(=O)N(C)CC(=O)N(Cc2ccc(-c3ccc(-c4cccc(C#N)c4)cc3)cc2)c2ccc(C(=O)O)c(O)c2)cc1	5 µM	> 10 µM	inactive	> 80%	6.1 µM	inactive	> 50 µM	inactive	5.1 µM	> 80%	inactive	> 80%	> 10 µM	–	–	–	–
Cc1ccc(S(=O)(=O)N(C)CC(=O)N(Cc2ccc(-c3ccc(-c4cccc(C(N)=O)c4)cc3)cc2)c2ccc(C(=O)O)c(O)c2)cc1	4.6 µM	> 10 µM	inactive	> 80%	4.6 µM	inactive	> 50 µM	inactive	4.4 µM	> 80%	inactive	> 80%	> 10 µM	–	–	–	–
COC(=O)c1cccc(-c2ccc(-c3ccc(CN(C(=O)CN(C)S(=O)(=O)c4ccc(C)cc4)c4ccc(C(=O)O)c(O)c4)cc3)cc2)c1	4.8 µM	> 10 µM	inactive	> 80%	6.3 µM	inactive	> 50 µM	inactive	5.6 µM	> 80%	inactive	> 80%	> 10 µM	–	–	–	–
CN(CC(=O)N(Cc1ccc(C2CCCCC2)cc1)c1ccc(C(=O)O)c(O)c1)S(=O)(=O)c1cccc2cccnc12	6.2 µM	> 10 µM	inactive	> 80%	4.3 µM	inactive	> 50 µM	inactive	4.8 µM	> 80%	inactive	> 80%	> 10 µM	Dose-dependent effect	Non-toxic	inactive	Activity (CHO [11]): Toxic; inhibition [13]: Active
CN(C)c1cccc2c(S(=O)(=O)N(C)CC(=O)N(Cc3ccc(C4CCCCC4)cc3)c3ccc(C(=O)O)c(O)c3)cccc12	4.9 µM	> 10 µM	inactive	> 80%	3.6 µM	inactive	> 50 µM	inactive	5.1 µM	> 80%	inactive	> 80%	> 10 µM	Dose-dependent effect	Non-toxic	inactive	Activity (CHO [11]): Toxic; Ki [16]: 4 µM
CN(CC(=O)N(Cc1ccc(C2CCCCC2)cc1)c1ccc(C(=O)O)c(O)c1)S(=O)(=O)c1cccc2ccccc12	5.2 µM	> 10 µM	inactive	> 80%	5.2 µM	inactive	> 50 µM	inactive	3.9 µM	> 80%	inactive	> 80%	> 10 µM	Dose-dependent effect	Non-toxic	inactive	Ki [16]: 2.1 µM; Activity (CHO [17]): Toxic
O=C(Cn1cc(-c2c(-c3ccccc3)oc3cc(O)c(C(=O)O)cc23)nn1)Nc1ccc(N2CCOCC2)cc1	–	–	–	–	–	–	–	–	–	–	–	–	–	–	–	–	IC50 [18]: 22 µM; IC50 [19]: 19 µM
